pIC50: −log10 of the molar value. In brackets after ≈: the same amount, converted by molar mass.
What was measured:
[1] = Antifungal activity against Penicillium notatum by agar streak dilution method; type: functional; conditions: Penicillium chrysogenum
[2] = tested on: Klebsiella pneumoniae; experiment: Antibacterial activity against Klebsiella pneumoniae after 24 hrs by broth dilution method; type: functional
[3] = Cytotoxicity against human HeLa cells assessed as inhibition of cell viability after 48 hrs by MTT assay; type: functional, cell-based
[4] = Cytotoxicity against human A549 cells assessed as inhibition of cell viability after 48 hrs by MTT assay; type: functional, cell-based; conditions: A549, 48 h
[5] = tested on: Aspergillus niger; experiment: Antifungal activity against Aspergillus niger by agar streak dilution method; type: functional
[6] = tested on: Staphylococcus aureus; experiment: Antibacterial activity against Staphylococcus aureus after 24 hrs by broth dilution method; type: functional
[7] = tested on: Escherichia coli; experiment: Antibacterial activity against Escherichia coli after 24 hrs by broth dilution method; type: functional
[8] = Cytotoxicity against human MCF7 cells assessed as inhibition of cell viability after 48 hrs by MTT assay; type: functional, cell-based; conditions: MCF7, 48 h
[9] = tested on: Bacillus subtilis; experiment: Antibacterial activity against Bacillus subtilis after 24 hrs by broth dilution method; type: functional
[10] = Cytotoxicity against HEK293 cells assessed as inhibition of cell viability after 48 hrs by MTT assay; type: toxicity, cell-based; conditions: human

SMILES	MIC [1] [µg/mL]	MIC [2] [µg/mL]	pIC50 [3]	pIC50 [4]	MIC [5] [µg/mL]	MIC [6] [µg/mL]	MIC [7] [µg/mL]	pIC50 [8]	MIC [9] [µg/mL]	IC50 at 48 h [10] [µM]
N/N=C1/c2ccccc2-n2c1nc1ccccc1c2=O	> 100	50 (≈ 191 µM)	4.59	4.54	50 (≈ 191 µM)	50 (≈ 191 µM)	> 100	4.60	> 100	–
COc1ccc2c(c1)/C(=N/N)c1nc3ccccc3c(=O)n1-2	50 (≈ 171 µM)	> 100	4.53	4.51	> 100	> 100	> 100	4.49	> 100	–
CC(C=C(O)c1ccccc1)=N/N=C1/c2cc(Br)ccc2-n2c1nc1ccccc1c2=O	25 (≈ 51.5 µM)	> 100	4.98	5.04	25 (≈ 51.5 µM)	> 100	> 100	5.15	> 100	46.1
COc1ccc2c(c1)/C(=N/N=C1/C=C(O)c3ccccc31)c1nc3ccccc3c(=O)n1-2	50 (≈ 119 µM)	12.5 (≈ 29.7 µM)	4.21	4.20	50 (≈ 119 µM)	1.56 (≈ 3.72 µM)	6.25 (≈ 14.9 µM)	4.22	3.12 (≈ 7.43 µM)	–
O=c1c2ccccc2nc2n1-c1ccc(Br)cc1/C2=N/N=C1/C=C(O)CCC1	6.25 (≈ 14.4 µM)	6.25 (≈ 14.4 µM)	4.45	4.38	6.25 (≈ 14.4 µM)	6.25 (≈ 14.4 µM)	12.5 (≈ 28.7 µM)	4.36	3.12 (≈ 7.18 µM)	–
O=c1c2ccccc2nc2n1-c1ccccc1/C2=N/N=C1/C=C(O)c2ccccc21	12.5 (≈ 32 µM)	1.56 (≈ 4 µM)	4.31	4.25	6.25 (≈ 16 µM)	3.12 (≈ 8 µM)	12.5 (≈ 32 µM)	4.30	6.25 (≈ 16 µM)	–
CC(C=C(O)c1ccccc1)=N/N=C1/c2ccccc2-n2c1nc1ccccc1c2=O	25 (≈ 61.5 µM)	> 100	4.60	4.75	25 (≈ 61.5 µM)	> 100	> 100	4.58	> 100	68.1
CCO/C(O)=C/C(C)=N/N=C1/c2ccccc2-n2c1nc1ccccc1c2=O	25 (≈ 66.8 µM)	12.5 (≈ 33.4 µM)	4.37	4.29	12.5 (≈ 33.4 µM)	6.25 (≈ 16.7 µM)	12.5 (≈ 33.4 µM)	4.30	6.25 (≈ 16.7 µM)	–
COc1ccc2c(c1)/C(=N/N=C(C)C=C(C)O)c1nc3ccccc3c(=O)n1-2	100 (≈ 267 µM)	50 (≈ 134 µM)	4.31	4.33	> 100	12.5 (≈ 33.4 µM)	50 (≈ 134 µM)	4.32	50 (≈ 134 µM)	–
CC(=O)N1CCN(c2ccc(OCC3COC(Cn4ccnc4)(c4ccc(Cl)cc4Cl)O3)cc2)CC1 (configuration not stated) [KETOCONAZOLE]	3.12 (≈ 5.88 µM)	–	–	–	3.12 (≈ 5.88 µM)	–	–	–	–	–
CC1(C)CC(O)=C/C(=N/N=C2/c3cc(Br)ccc3-n3c2nc2ccccc2c3=O)C1	> 100	> 100	4.40	4.33	100 (≈ 216 µM)	> 100	> 100	4.40	> 100	–
O=c1c2ccccc2nc2n1-c1ccc(Br)cc1/C2=N/N=C1/C=C(O)c2ccccc21	6.25 (≈ 13.3 µM)	3.12 (≈ 6.66 µM)	4.77	4.69	3.12 (≈ 6.66 µM)	1.56 (≈ 3.33 µM)	3.12 (≈ 6.66 µM)	4.80	1.56 (≈ 3.33 µM)	55.2
CC(O)=CC(C)=N/N=C1/c2cc(C)cc(C)c2-n2c1nc1ccccc1c2=O	100 (≈ 269 µM)	6.25 (≈ 16.8 µM)	4.38	4.33	100 (≈ 269 µM)	12.5 (≈ 33.6 µM)	25 (≈ 67.1 µM)	4.35	12.5 (≈ 33.6 µM)	–
CC(O)=CC(C)=N/N=C1/c2cc(Br)ccc2-n2c1nc1ccccc1c2=O	> 100	> 100	4.51	4.51	> 100	50 (≈ 118 µM)	50 (≈ 118 µM)	4.48	50 (≈ 118 µM)	–
C/C(O)=C/C(C)=N/N=C1/c2ccccc2-n2c1nc1ccccc1c2=O	> 100	12.5 (≈ 36.3 µM)	4.35	4.36	> 100	25 (≈ 72.6 µM)	50 (≈ 145 µM)	4.38	25 (≈ 72.6 µM)	–
COc1ccc2c(c1)/C(=N/N=C(C)C=C(O)c1ccccc1)c1nc3ccccc3c(=O)n1-2	50 (≈ 115 µM)	> 100	4.47	4.53	25 (≈ 57.3 µM)	> 100	> 100	4.51	> 100	–
CC1(C)CC(O)=C/C(=N/N=C2/c3ccccc3-n3c2nc2ccccc2c3=O)C1	100 (≈ 260 µM)	12.5 (≈ 32.5 µM)	4.23	4.18	100 (≈ 260 µM)	50 (≈ 130 µM)	50 (≈ 130 µM)	4.16	50 (≈ 130 µM)	–
CN[C@@H]1[C@H](O[C@H]2[C@H](O[C@H]3[C@H](O)[C@@H](O)[C@H](N=C(N)N)[C@@H](O)[C@@H]3N=C(N)N)O[C@@H](C)[C@]2(O)C=O)O[C@@H](CO)[C@H](O)[C@H]1O [STREPTOMYCIN]	–	1.56 (≈ 2.69 µM)	–	–	–	6.25 (≈ 10.7 µM)	6.25 (≈ 10.7 µM)	–	3.12 (≈ 5.37 µM)	–
COc1ccc2c(c1)/C(=N/N=C1/C=C(O)CCC1)c1nc3ccccc3c(=O)n1-2	12.5 (≈ 32.3 µM)	6.25 (≈ 16.2 µM)	4.49	4.44	100 (≈ 259 µM)	3.12 (≈ 8.09 µM)	12.5 (≈ 32.3 µM)	4.49	6.25 (≈ 16.2 µM)	–
O=c1c2ccccc2nc2n1-c1ccccc1/C2=N/N=C1/C=C(O)CCC1	25 (≈ 70.1 µM)	12.5 (≈ 35.1 µM)	4.62	4.53	12.5 (≈ 35.1 µM)	6.25 (≈ 17.5 µM)	6.25 (≈ 17.5 µM)	4.55	3.12 (≈ 8.77 µM)	–
CCO/C(O)=C/C(C)=N/N=C1/c2cc(OC)ccc2-n2c1nc1ccccc1c2=O	50 (≈ 124 µM)	3.12 (≈ 7.73 µM)	4.23	4.25	50 (≈ 124 µM)	6.25 (≈ 15.5 µM)	12.5 (≈ 30.9 µM)	4.26	6.25 (≈ 15.5 µM)	–
N/N=C1/c2cc(Br)ccc2-n2c1nc1ccccc1c2=O	50 (≈ 147 µM)	25 (≈ 73.3 µM)	4.66	4.64	50 (≈ 147 µM)	> 100	> 100	4.63	50 (≈ 147 µM)	–
CCO/C(O)=C/C(C)=N/N=C1/c2cc(Br)ccc2-n2c1nc1ccccc1c2=O	3.12 (≈ 6.89 µM)	12.5 (≈ 27.6 µM)	4.44	4.40	6.25 (≈ 13.8 µM)	1.56 (≈ 3.45 µM)	6.25 (≈ 13.8 µM)	4.44	3.12 (≈ 6.89 µM)	–
COc1ccc2c(c1)/C(=N/N=C1/C=C(O)CC(C)(C)C1)c1nc3ccccc3c(=O)n1-2	> 100	> 100	4.24	4.17	100 (≈ 241 µM)	> 100	> 100	4.16	> 100	–

— ChEMBL document CHEMBL3862025, “Novel substituted hydrazono indolo[2,1-b]quinazoline-6,12-dione analogues as cytostatic agents: Synthesis, crystal structure, biological evaluation and molecular docking studies” (Bioorg Med Chem Lett, 2016)
